Values of other authors as cited in patent US20020048596A1, “PREPARATION FOR THE TRANSPORT OF AN ACTIVE SUBSTANCE ACROSS BARRIERS” (priority 1999, published 2002).
Read-outs that look alike come from different tables or passages of the source.

Molecule	CMC (in water / suspension medium)	also measured
CCCCCCCCCC(=O)OC[C@H](COP(=O)([O-])OCC[N+](C)(C)C)OC(=O)CCCCCCCCC [didecanoyl phosphatidyl choline]	–	CMC (unit not given): CMC ∞ 10^−6
CC(C)Cc1ccc(C(C)C(=O)O)cc1 (stereo not shown) [ibuprofen, reference compound]	–	solubility: ibuprofen, solubility ≦ 5 × 10^−5M
distearoyl glycerophosphoethanolamine triazopolyethylene glycol (5000)	CMC = 10^−5M	–
distearoyl phosphomaltobionamide	CMC = 10^−5 M	–
